Data as given in US5444070A, “Phenyl substituted heterocyclic compounds” (NeuroSearch A/S, priority 1992, dated 1995).
pIC50: −log10 of the molar value.

What was measured:
[1] = tested on: reuptake of dopamine in synaptosomes of rat forebrain; assay: inhibition of dopamine reuptake in synaptosomes of rat forebrain; assay type: biochemical; details: 3H-dopamine 1×10^-9 M, 10 min at 37° C., male Wistar rat forebrain synaptosomes; read-out: Dopamine reuptake inhibiting activity (IC50)
Description: Fresh whole forebrain (at 0°-4° C.) from male Wistar rats (150-200 g) is homogenized in a glass homogenizer with a teflon pestle in 20×volumes 0.32M sucrose. The homogenate is centrifuged at 1000×g (~2900 rpm) for 10 min. The pellet is discarded and the supernatant is used for uptake assays.
A Krebs Buffer (119 mM NaCl, 24 mM NaHCO3, 2.1 mM KCl, 1.2 mM KH2 PO4, 1.8 mM CaCl2, 2 mM MgSO4,7H2 O, 12 mM glucose) is equilibrated with an atmosphere of 96% O2 : 4% CO2 for at least 60 min at 37° C. To 5 ml Krebs-buffer 100 μl of the radioactivity is added (3H-dopamine 1×10^-9 M final concentration) and 100 μl test substance solution and 200 μl of tissue suspension. The samples are thoroughly mixed and incubated 10 min at 37° C. followed by 2 min at 0° C. After incubation the samples are poured directly onto Whatman GF/C glass fibre filters under suction and immediately washed with 2×5 ml ice-cold 0.9% saline (NaCl) buffer. To the filter is added 3 ml of scintillation fluid, and the amount of radioactivity on the filters is determined by conventional liquid scintillation counting.

[2] = tested on: abnormal stereotyped behaviour; assay: abnormal stereotyped behaviour; assay type: in vivo, rat; details: at every relevant dosing level tested
From the text: Backward locomotion may occasionally be observed.
+=only stereotyped sniffing
++=stereotyped sniffing and episodic licking
+++=Continuous licking and/or biting gnawing

Compound | pIC50 [1] | side effects: abnormal stereotyped behaviour [2]
CN1[C@H]2CC[C@@H]1[C@H](c1nc(-c3ccccc3)no1)[C@@H](c1ccc3ccccc3c1)C2 [(1R,2R,3S)-2-(3-phenyl-1,2,4-oxadiazol-5-yl)-3-(2-naphthyl)-tropane] | 6.27 | 
CN1[C@H]2CC[C@@H]1[C@H](c1nc(-c3ccccc3)no1)[C@@H](c1ccc(Cl)cc1)C2 [(1R,2R,3S)-2-(3-phenyl-1,2,4-oxadiazol-5-yl)-3-(4-chlorophenyl)-tropane] | 6.48 | 
Cc1ccc([C@H]2C[C@@H]3CC[C@H]([C@@H]2c2nc(-c4ccccc4)no2)N3C)cc1 [(1R,2R,3S)-2-(3-phenyl-1,2,4-oxadiazol-5-yl)-3-(4-methylphenyl)-tropane] | 6.02 | 
COC(=O)[C@@H]1[C@@H](c2ccc(F)cc2)C[C@@H]2CC[C@H]1N2C [trans isomer of Win 35,428, (1R,2R,3S)-2-carbomethoxy-3-(4-fluorophenyl)tropane, reference compound] |  | essentially or totally devoid of side effects
